Experimental data from US12465065B2, “Method of preparing beverages with enhanced sweetness with cyclamate” (The Coca-Cola Company, priority 2017, dated 2025).
Read-outs that look alike come from different tables or passages of the source.

Key:
[1] = 30 ppm cyclamate in acidic water; one panelist
Procedure: (§1) Ingredients were added to water while stirring until solids were visibly dissolved and the sample was poured into a glass bottle and stored at 4° C.
(§2) Taste tests were carried out with one panelist. Bottles were removed from the refrigerator and about 25 ml of beverage was poured into 4 oz-plastic cups. The panelist was given mineral water to rinse their mouth before tasting and between tasting different samples. Unsalted crackers were also given to eat followed by rinsing the mouth with mineral water before tasting the next sample.
(§3) Initially, the panelist was asked to determine the sweetness of the 30 ppm of cyclamate (Table 1).
The panelist was asked to compare the taste profile of (i) a sample of 150 ppm rebaudioside M in acidic water and (ii) a sample of 150 ppm rebaudioside M and 30 ppm cyclamate (below the sweetness recognition threshold concentration) in acidic water. The panelist was asked to compare the sweetness and taste profiles of the two samples.

[2] = 30 ppm cyclamate in acidic water; one panelist; remark: listed apart in the source
Procedure: as §1, §2, §3

[3] = Taste evaluation, sweetness compared to control sucrose acidic water solutions (Example 1); format: in vivo, human; conditions: samples with 320 ppm rebaudioside M in acidic water (citric acid); one panelist; controls 8%, 9%, 10% sucrose
Text: The panelist was instructed to sip, evaluate the sweetness, and then spit the sample in cups provided for that purpose.

SMILES	sweetness of cyclamate alone [1]	sweetness of cyclamate alone [2]	sweetness compared to control sucrose acidic water solutions [3] [%]
O=S(=O)([O-])NC1CCCCC1.[Na+] [cyclamate, sodium cyclamate]	not sweet	not sweet	
C=C1C[C@@]23CC[C@H]4[C@@](C)(CCC[C@@]4(C)C(=O)O[C@@H]4O[C@H](CO)[C@@H](O)[C@H](O[C@@H]5O[C@H](CO)[C@@H](O)[C@H](O)[C@H]5O)[C@H]4O[C@@H]4O[C@H](CO)[C@@H](O)[C@H](O)[C@H]4O)[C@@H]2CC[C@]1(O[C@@H]1O[C@H](CO)[C@@H](O)[C@H](O[C@@H]2O[C@H](CO)[C@@H](O)[C@H](O)[C@H]2O)[C@H]1O[C@@H]1O[C@H](CO)[C@@H](O)[C@H](O)[C@H]1O)C3 [rebaudioside M]			< 8
